Legend:
Assay type in all cases: cell-based
MDA-MB-468 = experiment: NCI 60 cell assay, breast MDA-MB-468; settings: Homo sapiens, 48 h; MDA-MB-468 (breast); drug exposure two days, SRB endpoint; read-out: GI-50 value
Experimental: (§1) Samples were tested in the standard National Cancer Institute 60-cell line protocol. First, they were tested against all 60 cell lines in a single final concentration of 10 micromolar. Then, they were separately tested in five 10-fold dilutions. The drug exposure was two days, with an SRB endpoint.

DU-145 = experiment: NCI 60 cell assay, prostate DU-145; settings: Homo sapiens, 48 h; DU-145 (prostate); drug exposure two days, SRB endpoint; read-out: GI-50 value
Experimental: as §1

SF-268 = experiment: NCI 60 cell assay, CNS SF-268; settings: Homo sapiens, 48 h; SF-268 (CNS); drug exposure two days, SRB endpoint; read-out: GI-50 value
Experimental: as §1

OVCAR-3 = experiment: NCI 60 cell assay, ovarian OVCAR-3; settings: Homo sapiens, 48 h; OVCAR-3 (ovarian); drug exposure two days, SRB endpoint; read-out: GI-50 value
Experimental: as §1

SK-MEL-28 = experiment: NCI 60 cell assay, melanoma SK-MEL-28; settings: Homo sapiens, 48 h; SK-MEL-28 (melanoma); drug exposure two days, SRB endpoint; read-out: GI-50 value
Experimental: as §1

NCI-H322M = experiment: NCI 60 cell assay, NSCLC NCI-H322M; settings: Homo sapiens, 48 h, drug exposure two days, SRB endpoint, read-out: GI-50 value
Experimental: as §1

MOLT-4 = experiment: NCI 60 cell assay, leukemia MOLT-4; settings: Homo sapiens, 48 h; MOLT-4 (leukemia); drug exposure two days, SRB endpoint; read-out: GI-50 value
Experimental: as §1

UACC-257 = experiment: NCI 60 cell assay, melanoma UACC-257; settings: Homo sapiens, 48 h; UACC-257 (melanoma); drug exposure two days, SRB endpoint; read-out: GI-50 value
Experimental: as §1

OVCAR-4 = experiment: NCI 60 cell assay, ovarian OVCAR-4; settings: Homo sapiens, 48 h; OVCAR-4 (ovarian); drug exposure two days, SRB endpoint; read-out: GI-50 value
Experimental: as §1

UACC-62 = experiment: NCI 60 cell assay, melanoma UACC-62; settings: Homo sapiens, 48 h; UACC-62 (melanoma); drug exposure two days, SRB endpoint; read-out: GI-50 value
Experimental: as §1

U251 = experiment: NCI 60 cell assay, CNS U251; settings: Homo sapiens, U-251, 48 h, drug exposure two days, SRB endpoint, read-out: GI-50 value
Experimental: as §1

T-47D = experiment: NCI 60 cell assay, breast T-47D; settings: Homo sapiens, T47D, 48 h; T-47D (breast); drug exposure two days, SRB endpoint; read-out: GI-50 value
Experimental: as §1

HS 578T = experiment: NCI 60 cell assay, breast HS 578T; settings: Homo sapiens, 48 h; HS 578T (breast); drug exposure two days, SRB endpoint; read-out: GI-50 value
Experimental: as §1

NCI-H23 = experiment: NCI 60 cell assay, NSCLC NCI-H23; settings: Homo sapiens, 48 h, drug exposure two days, SRB endpoint, read-out: GI-50 value
Experimental: as §1

HT29 = experiment: NCI 60 cell assay, colon HT29; settings: Homo sapiens, HT-29, 48 h, drug exposure two days, SRB endpoint, read-out: GI-50 value
Experimental: as §1

OVCAR-5 = experiment: NCI 60 cell assay, ovarian OVCAR-5; settings: Homo sapiens, 48 h; OVCAR-5 (ovarian); drug exposure two days, SRB endpoint; read-out: GI-50 value
Experimental: as §1

NCI-H460 = experiment: NCI 60 cell assay, NSCLC NCI-H460; settings: Homo sapiens, 48 h, drug exposure two days, SRB endpoint, read-out: GI-50 value
Experimental: as §1

SK-MEL-5 = experiment: NCI 60 cell assay, melanoma SK-MEL-5; settings: Homo sapiens, 48 h; SK-MEL-5 (melanoma); drug exposure two days, SRB endpoint; read-out: GI-50 value
Experimental: as §1

ACHN = experiment: NCI 60 cell assay, renal ACHN; settings: Homo sapiens, 48 h, drug exposure two days, SRB endpoint, read-out: GI-50 value
Experimental: as §1

SW-620 = experiment: NCI 60 cell assay, colon SW-620; settings: Homo sapiens, 48 h; SW-620 (colon); drug exposure two days, SRB endpoint; read-out: GI-50 value
Experimental: as §1

SF-539 = experiment: NCI 60 cell assay, CNS SF-539; settings: Homo sapiens, 48 h; SF-539 (CNS); drug exposure two days, SRB endpoint; read-out: GI-50 value
Experimental: as §1

NCI-H226 = experiment: NCI 60 cell assay, NSCLC NCI-H226; settings: Homo sapiens, 48 h, drug exposure two days, SRB endpoint, read-out: GI-50 value
Experimental: as §1

M14 = experiment: NCI 60 cell assay, melanoma M14; settings: Homo sapiens, 48 h, drug exposure two days, SRB endpoint, read-out: GI-50 value
Experimental: as §1

HCC-2998 = experiment: NCI 60 cell assay, colon HCC-2998; settings: Homo sapiens, 48 h; HCC-2998 (colon); drug exposure two days, SRB endpoint; read-out: GI-50 value
Experimental: as §1

SK-OV-3 = experiment: NCI 60 cell assay, ovarian SK-OV-3; settings: Homo sapiens, 48 h; SK-OV-3 (ovarian); drug exposure two days, SRB endpoint; read-out: GI-50 value
Experimental: as §1

SR = experiment: NCI 60 cell assay, leukemia SR; settings: Homo sapiens, 48 h, drug exposure two days, SRB endpoint, read-out: GI-50 value
Experimental: as §1

MDA-MB-435 = experiment: NCI 60 cell assay, melanoma MDA-MB-435; settings: Homo sapiens, 48 h; MDA-MB-435 (melanoma); drug exposure two days, SRB endpoint; read-out: GI-50 value
Experimental: as §1

MALME-3M = experiment: NCI 60 cell assay, melanoma MALME-3M; settings: Homo sapiens, 48 h; MALME-3M (melanoma); drug exposure two days, SRB endpoint; read-out: GI-50 value
Experimental: as §1

SNB-19 = experiment: NCI 60 cell assay, CNS SNB-19; settings: Homo sapiens, 48 h; SNB-19 (CNS); drug exposure two days, SRB endpoint; read-out: GI-50 value
Experimental: as §1

MCF7 = experiment: NCI 60 cell assay, breast MCF7; settings: Homo sapiens, 48 h, drug exposure two days, SRB endpoint, read-out: GI-50 value
Experimental: as §1

CAKI-1 = experiment: NCI 60 cell assay, renal CAKI-1; settings: Homo sapiens, 48 h; CAKI-1 (renal); drug exposure two days, SRB endpoint; read-out: GI-50 value
Experimental: as §1

HOP-62 = experiment: NCI 60 cell assay, NSCLC HOP-62; settings: Homo sapiens, 48 h; HOP-62 (NSCLC); drug exposure two days, SRB endpoint; read-out: GI-50 value
Experimental: as §1

CC1=C2[C@@H](CC1)[C@]1(C)O[C@@](C(C)C)(C[C@H]1OC(=O)CO)[C@H]2OC(=O)/C=C/c1ccccc1 [Compound (Ih)]
GI50 (MDA-MB-468): 33 µM
GI50 (DU-145): 41 µM
GI50 (SF-268): 2.6 µM
GI50 (OVCAR-3): 39 µM
GI50 (SK-MEL-28): 42 µM
GI50 (NCI-H322M): 43 µM
GI50 (MOLT-4): 40 µM
GI50 (UACC-257): 40 µM
GI50 (OVCAR-4): 35 µM
GI50 (UACC-62): 100 µM
GI50 (U251): 35 µM
GI50 (T-47D): 27 µM
GI50 (HS 578T): 0.015 µM
GI50 (NCI-H23): 42 µM
GI50 (HT29): 39 µM
GI50 (OVCAR-5): 41 µM
GI50 (NCI-H460): 37 µM
GI50 (SK-MEL-5): 35 µM
GI50 (ACHN): 0.022 µM
GI50 (SW-620): 40 µM
GI50 (SF-539): 40 µM
GI50 (NCI-H226): 35 µM
GI50 (M14): 43 µM
GI50 (HCC-2998): 100 µM
GI50 (SK-OV-3): 44 µM
GI50 (SR): 32 µM
GI50 (MDA-MB-435): 43 µM
GI50 (MALME-3M): 43 µM
GI50 (SNB-19): 39 µM
GI50 (MCF7): 32 µM
GI50 (CAKI-1): 1.07 µM
GI50 (HOP-62): 36 µM

CC1=C2[C@@H](CC1)[C@]1(C)O[C@@](C(C)C)(C[C@H]1OC(=O)CO)[C@H]2OC(=O)C1CC1c1ccccc1 (stereo partly drawn) [Compound (Ij), (3aR,4S,5R,7R,8S)-5-(2-hydroxyacetoxy)-7-isopropyl-1,4-dimethyl-2,3,3a,4,5,6,7,8-octahydro-4,7-epoxyazulen-8-yl-2-phenylcyclopropane-1-carboxylate]
GI50 (MDA-MB-468): 13 µM
GI50 (DU-145): 16 µM
GI50 (SF-268): 14 µM
GI50 (OVCAR-3): 14 µM
GI50 (SK-MEL-28): 17 µM
GI50 (NCI-H322M): 19 µM
GI50 (MOLT-4): 9 µM
GI50 (UACC-257): 16 µM
GI50 (OVCAR-4): 14 µM
GI50 (UACC-62): 12 µM
GI50 (U251): 15 µM
GI50 (T-47D): 4.6 µM
GI50 (HS 578T): 0.15 µM
GI50 (NCI-H23): 15 µM
GI50 (HT29): 13 µM
GI50 (OVCAR-5): 20 µM
GI50 (NCI-H460): 16 µM
GI50 (SK-MEL-5): 16 µM
GI50 (ACHN): 1.4 µM
GI50 (SW-620): 17 µM
GI50 (SF-539): 17 µM
GI50 (NCI-H226): 17 µM
GI50 (M14): 13 µM
GI50 (HCC-2998): 14 µM
GI50 (SK-OV-3): 17 µM
GI50 (SR): 14 µM
GI50 (MDA-MB-435): 15 µM
GI50 (MALME-3M): 17 µM
GI50 (SNB-19): 17 µM
GI50 (MCF7): 8.9 µM
GI50 (CAKI-1): 12 µM
GI50 (HOP-62): 17 µM

From patent US10287297B2, “Epoxyazulene derivatives useful for treating cancer and diabetes” (The United States of America, as represented by the …, priority 2015, dated 2019)
